Experimental data from patent US20260365655A1, “NEW USE OF JANUS KINASE (JAK)-DEGRADING AGENT BASED ON PROTEOLYSIS TARGETING CHIMERA (PROTAC)” (SHANGHAI SKIN DISEASE HOSPITAL, priority 2022, published 2026).
Several values for one entry are separate records, joined by “and”; a condition that tells them apart may be missing. Equal entries are not always repeated.

How the values were obtained:
[1] = test system: mouse ear eczema model (atopic dermatitis); experiment: Mouse ear eczema model (calcipotriol-induced): SCORAD of skin damage and overall therapeutic effect; assay type: in vivo, BALB/c mice; conditions: 0.15% cream for external use; result is for model group relative to the treated groups
Description: (§1) (1) Preparation method of a JAK-PROTAC cream: the same as in Example 1.
(§2) (2) Positive therapeutic drug: a 0.050% dexamethasone acetate cream (manufacturer: Shanghai Skin Disease Hospital).
(§3) (3) Blank matrix: a matrix component produced after the active ingredient JAK-PROTAC was removed from the cream.
(§4) (4) Molding agent: solution of calcipotriol in ethanol (manufacturer: MACKLIN).
(§5) (1) The mice were randomly divided into a blank control group (6 mice) (Control), a model group (6 mice) (Model), a positive drug group (6 mice) (Positive), a Compound 1-treating group (0.15% JAK-PROTAC cream 1 for external use) (6 mice) (Treat 1), and a Compound 2-treating group (0.15% JAK-PROTAC cream 2 for external use) (6 mice) (Treat 2).
(2) Molding was conducted in the following manner: […]
(1) The photographing was conducted every day. The severity of skin damage in an ear application region was evaluated through SCORAD for mice. […] Each symptom was scored as 0 to 3 depending on the severity of a skin damage: asymptomatic: 0, mild: 1, moderate: 2, and severe: 3. […]

[2] = test system: serum thymic stromal lymphopoietin (TSLP); experiment: Mouse ear eczema model: serum TSLP by enzyme-linked immunosorbent assay; assay type: in vivo, BALB/c mice; conditions: for Serum TSLP content versus blank group: compared with the blank group; for Serum TSLP content versus model group: compared with the model group; for Reduction level of serum TSLP content versus positive group: compared with the positive group (dexamethasone acetate cream)
Description: as §1, §2, §3, §4, §5
(§6) (2) Molding was conducted in the following manner:
(§7) A. On day 0 to day 7 of the modeling: At 9 a.m., the blank control group was administered with the cream matrix, the model group was administered with the molding agent, the positive group was administered with the molding agent, the Compound 1-treating group was administered with the molding agent, and the Compound 2-treating group was administered with the molding agent. At 5 p.m., the blank control group was not treated, the model group was administered with the cream matrix, the positive group was administered with the dexamethasone acetate cream, the Compound 1-treating group was administered with the JAK-PROTAC cream 1, and the Compound 2-treating group was administered with the JAK-PROTAC cream 2.
as §7, with “B.” for “A.”, “8” for “0”, “10” for “7”, “modeling, at” for “modeling: At”, “not treated,” for “administered with the molding agent,”, “not treated.” for “administered with the molding agent.”
(§8) C. On day 11 of the modeling: At 9 a.m., the blank control group was administered with the cream matrix, the model group was not treated, the positive group was not treated, the Compound 1-treating group was not treated, and the Compound 2-treating group was not treated. At 1 p.m., the mice were sacrificed through cervical dislocation, and the spleen and two ears of each mouse were collected.
(4) The TSLP content in serum was detected by enzyme-linked immunosorbent assay.
(§9) The data of the present disclosure was processed with the Excel and GraphPad software. The experimental data was tested by one-way ANOVA. The post-hoc multiple comparison was conducted with the least significant difference (LSD). P<0.05 indicated a significant difference.

[3] = test system: mouse ear eczema model (spleen); experiment: Mouse ear eczema model: body weight, spleen weight and spleen index; assay type: in vivo, BALB/c mice; conditions: for Ranking in terms of spleen weight and spleen index: AD model, positive drug, Compound 1 and Compound 2 groups; for Therapeutic effect for AD / Therapeutic effect versus the positive drug: atopic dermatitis mouse models; for Therapeutic effect versus the positive drug: positive drug = 0.050% dexamethasone acetate cream; for Spleen weights and spleen indexes versus blank control group: compared with the blank control group; for Spleen weight, mean value: group mean; for Spleen weight, mean value / Spleen weight: day 11, wet weight; for Spleen weight: individual mice
Description: as §1, §2, §3, §4, §5, §6, §7
as §7, with “B.” for “A.”, “8” for “0”, “10” for “7”, “modeling, at” for “modeling: At”, “not treated,” for “administered with the molding agent,”, “not treated.” for “administered with the molding agent.”
as §8
(3) Spleen index testing:
After the mice were sacrificed, a spleen tissue was collected, dried with a filter paper to remove blood stains on a surface, and weighed for a wet weight. A spleen index was calculated as follows: spleen index=10,000×spleen weight (g)/body weight (g).
(§10) (2) A body weight and thicknesses of two ears of each mouse were recorded daily.
(3) After the experiment was completed, a spleen index of each mouse was calculated.
as §9

[4] = test system: RAW 264.7 cells; experiment: NO content assay in LPS+IFN-γ induced RAW 264.7 macrophage inflammatory model; assay type: cell-based; conditions: for NO level versus LPS+IFN-γ model group: 0.05, 0.1, 0.2 g/mL (so in the source), 0.4 and 0.8 μg/mL, 24 h, LPS 0.5 μg/mL + IFN-γ 2 ng/mL; for Inhibition of inflammation: concentration range of 0.05 μg/mL to 0.8 μg/mL; for Concentration of optimal anti-inflammatory effect: tested 0.05 μg/mL to 0.8 μg/mL
Procedure: (1) Reagents: compound 1: a compound shown by Compound 1 in formula (I); compound 2: a compound shown by Compound 2 in Formula (I); DMEM high-glucose medium: Wuhan Pricella Biotechnology Co., Ltd.; South American FBS and trypsin: Gibco, USA; penicillin-streptomycin: Hyclone, USA; and nitric oxide (NO) assay kit: Beyotime.
(2) Instruments: CO2 incubator: HERA cell 240; and microplate reader: Thermo Fisher Scientific, USA.
Induction of an RAW 264.7 macrophage inflammatory model with lipopolysaccharide (LPS) and interferon-gamma (IFN-γ): RAW 264.7 cells in a logarithmic growth phase were taken and inoculated in a 96-well cell culture plate at 20×10^3 cells/well, and cultured for 24 h until the cells were adherent. Ablank control group of 0 μg/mL, a model group of 0.5 μg/mL LPS+2 ng/mL IFN-γ, and experimental groups of compounds 1 and 2 at concentrations of 0.05 μg/mL, 0.1 μg/mL, 0.2 μg/mL, 0.4 μg/mL, and 0.8 μg/mL were set. Three replicate wells were set for each group. In the blank control group, cells were incubated with serum-free DMEM. In the LPS+IFN-γ model group, cells were incubated with serum-free DMEM. After 24 h of incubation, morphological changes of cells were observed, and a concentration of NO was determined according to instructions of the NO assay kit.
The data of the present disclosure was processed with the Excel and Graphpad software. The experimental data were tested by one-way ANOVA. The post-hoc multiple comparison was conducted with the LSD. P<0.05 indicated a significant difference.

[5] = test system: mouse ear eczema model (ear thickness); experiment: Mouse ear eczema model: ear thickness; assay type: in vivo, BALB/c mice; conditions: for Ear thickness, mean value: group mean; for Ear thickness: individual mice, two ears; for Ear thickness difference among Compound 1-, Compound 2-treating and positive drug groups / Ear thickness of model group versus treated groups: after the modeling; for Ear thickness of model group versus treated groups: result is for model group relative to the treated groups
Description: as §1, §2, §3, §4, §5, §6, §7
as §7, with “B.” for “A.”, “8” for “0”, “10” for “7”, “modeling, at” for “modeling: At”, “not treated,” for “administered with the molding agent,”, “not treated.” for “administered with the molding agent.”
as §8, §10, §9

[6] = Day0, cream for external use (JAK-PROTAC 0.15%, dexamethasone acetate 0.050%)
[7] = Day0 of modeling, cream for external use (JAK-PROTAC 0.15%, dexamethasone acetate 0.050%)

## N#CC[C@H](C1CCCC1)n1cc(-c2nc(Nc3ccc(C(=O)NCCCCNc4cccc5c4C(=O)N(C4CCC(=O)NC4=O)C5=O)cc3)nc3[nH]ccc23)cn1 (stereo partly drawn) [Compound 1]
[1]
  Erythema, scale, and infiltration scores and total scores (SCORAD) of model group versus treated groups: significantly higher than the respective scores in the Compound 1- and Compound 2-treating groups (P<0.05)
[2]
  Serum TSLP content versus blank group: increased compared with the blank group (P<0.01)
  Serum TSLP content versus model group: significantly reduced compared with the model group (P<0.01)
  Reduction level of serum TSLP content versus positive group: greater than a reduction level of a TSLP content in the positive group (P<0.01)
[3]
  Ranking in terms of spleen weight and spleen index: the Compound 1-treating group>the Compound 2-treating group>the positive drug group>the AD model group (P<0.05)
  Therapeutic effect for AD: had a therapeutic effect for AD, could improve the inflammatory responses in atopic dermatitis mouse models
  Therapeutic effect versus the positive drug: exhibited a better therapeutic effect than the positive drug
  Spleen weights and spleen indexes versus blank control group: significantly reduced (P<0.05)
  Spleen weight, mean value: 0.0862 g
  Spleen weight: 0.0798 g and 0.0934 g and 0.0855 g
[4]
  NO level versus LPS+IFN-γ model group: reduced
  Inhibition of inflammation: could effectively inhibit the inflammation
  Concentration of optimal anti-inflammatory effect: 0.4 µg/mL
[5]; [6]
  Ear thickness, mean value: 0.24 mm
[5]; [7]
  Ear thickness: 0.23 mm (2×) and 0.24 mm (3×) and 0.26 mm and 0.25 mm (2×)
[5]; Day 1
  Ear thickness, mean value: 0.27 mm
  Ear thickness: 0.26 mm (5×) and 0.29 mm and 0.28 mm and 0.27 mm
[5]; Day2
  Ear thickness, mean value: 0.28 mm
  Ear thickness: 0.30 mm (3×) and 0.27 mm (3×) and 0.28 mm and 0.24 mm
[5]; Day3
  Ear thickness, mean value: 0.28 mm
  Ear thickness: 0.30 mm and 0.31 mm and 0.26 mm and 0.28 mm and 0.27 mm (2×) and 0.29 mm and 0.24 mm
[5]; Day4
  Ear thickness, mean value: 0.28 mm
  Ear thickness: 0.27 mm (2×) and 0.33 mm and 0.31 mm and 0.30 mm and 0.25 mm (2×) and 0.28 mm
[5]; Day5
  Ear thickness, mean value: 0.29 mm
  Ear thickness: 0.32 mm (3×) and 0.29 mm and 0.28 mm (2×) and 0.30 mm and 0.24 mm
[5]; Day6
  Ear thickness, mean value: 0.32 mm
  Ear thickness: 0.34 mm and 0.35 mm (2×) and 0.36 mm and 0.31 mm and 0.30 mm and 0.25 mm and 0.33 mm
[5]; Day7
  Ear thickness, mean value: 0.33 mm
  Ear thickness: 0.33 mm (2×) and 0.32 mm and 0.37 mm and 0.35 mm and 0.36 mm and 0.26 mm and 0.34 mm
[5]; Day8
  Ear thickness, mean value: 0.32 mm
  Ear thickness: 0.30 mm and 0.33 mm and 0.32 mm (2×) and 0.35 mm and 0.37 mm and 0.24 mm and 0.34 mm
[5]
  Ear thickness difference among Compound 1-, Compound 2-treating and positive drug groups: no significant difference among the Compound 1- and Compound 2-treating groups and the positive drug group (P>0.05)
  Ear thickness of model group versus treated groups: significantly larger than ear thicknesses of the Compound 1- and Compound 2-treating groups, the positive drug group, and the blank control group (P<0.05)

## CCS(=O)(=O)N1CC(CC#N)(n2cc(-c3nc(Nc4ccc(C(=O)NCCCCNc5cccc6c5C(=O)N(C5CCC(=O)NC5=O)C6=O)cc4)nc4[nH]ccc34)cn2)C1 (stereo not drawn) [Compound 2]
[1]
  Erythema, scale, and infiltration scores and total scores (SCORAD) of model group versus treated groups: significantly higher than the respective scores in the Compound 1- and Compound 2-treating groups (P<0.05)
[2]
  Serum TSLP content versus blank group: increased compared with the blank group (P<0.01)
  Serum TSLP content versus model group: significantly reduced compared with the model group (P<0.01)
  Reduction level of serum TSLP content versus positive group: greater than a reduction level of a TSLP content in the positive group (P<0.01)
[3]
  Ranking in terms of spleen weight and spleen index: the Compound 1-treating group>the Compound 2-treating group>the positive drug group>the AD model group (P<0.05)
  Therapeutic effect for AD: had a therapeutic effect for AD, could improve the inflammatory responses in atopic dermatitis mouse models
  Therapeutic effect versus the positive drug: exhibited a better therapeutic effect than the positive drug
  Spleen weights and spleen indexes versus blank control group: significantly reduced (P<0.05)
  Spleen weight, mean value: 0.0732 g
  Spleen weight: 0.0749 g and 0.0739 g and 0.0708 g
[4]
  NO level versus LPS+IFN-γ model group: reduced
  Inhibition of inflammation: could effectively inhibit the inflammation
  Concentration of optimal anti-inflammatory effect: 0.4 µg/mL
[5]; [6]
  Ear thickness, mean value: 0.22 mm
[5]; [7]
  Ear thickness: 0.22 mm (3×) and 0.24 mm (2×) and 0.21 mm (3×)
[5]; Day 1
  Ear thickness, mean value: 0.26 mm
  Ear thickness: 0.28 mm and 0.29 mm and 0.24 mm (2×) and 0.25 mm (3×) and 0.26 mm
[5]; Day2
  Ear thickness, mean value: 0.25 mm
  Ear thickness: 0.23 mm (3×) and 0.29 mm and 0.21 mm and 0.26 mm (2×) and 0.25 mm
[5]; Day3
  Ear thickness, mean value: 0.26 mm
  Ear thickness: 0.26 mm (5×) and 0.27 mm and 0.24 mm and 0.25 mm
[5]; Day4
  Ear thickness, mean value: 0.27 mm
  Ear thickness: 0.29 mm and 0.27 mm and 0.26 mm (2×) and 0.28 mm (2×) and 0.25 mm and 0.24 mm
[5]; Day5
  Ear thickness, mean value: 0.29 mm
  Ear thickness: 0.29 mm (3×) and 0.30 mm (2×) and 0.28 mm and 0.31 mm and 0.26 mm
[5]; Day6
  Ear thickness, mean value: 0.32 mm
  Ear thickness: 0.32 mm (2×) and 0.33 mm (2×) and 0.31 mm (2×) and 0.30 mm (2×)
[5]; Day7
  Ear thickness, mean value: 0.35 mm
  Ear thickness: 0.34 mm (2×) and 0.36 mm (5×) and 0.35 mm
[5]; Day8
  Ear thickness, mean value: 0.35 mm
  Ear thickness: 0.34 mm (4×) and 0.36 mm (2×) and 0.39 mm and 0.33 mm
[5]
  Ear thickness difference among Compound 1-, Compound 2-treating and positive drug groups: no significant difference among the Compound 1- and Compound 2-treating groups and the positive drug group (P>0.05)
  Ear thickness of model group versus treated groups: significantly larger than ear thicknesses of the Compound 1- and Compound 2-treating groups, the positive drug group, and the blank control group (P<0.05)
